Positions of bridges follow the written chain, without caps; N, C: chain ends. Non-standard residues stand in square brackets, D forms with d. Residues, ends and D or L forms follow the SMILES beside them. R8 = C=CCCCCCC[C@@](C)(N)C(=O)O; Cit = NC(=O)NCCC[C@H](N)C(=O)O; S5 = C=CCCC[C@](C)(N)C(=O)O
Assays:
Bcl-2 = Bcl-2 (Homo sapiens, UniProt P10415); assay: Ki determination for Bcl-2 (BCL-2 family binding spectrum); settings: TABLE 6; read-out: Bcl-2 Ki
Procedure, shortened: (§1)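 Competitive fluorescence polarization: compounds (1 nM–1 mM) with 25 nM fluoresceinated peptidomimetic macrocycle and 50 nM protein in 140 mM NaCl, 50 mM Tris-HCl pH 7.4, 30 min at room temperature. Constants from nonlinear regression.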

Mcl-1 = Mcl-1 (Homo sapiens, UniProt Q07820); assay: Ki determination for Mcl-1 (BCL-2 family binding spectrum); settings: TABLE 6; read-out: Mcl-1 Ki
Sequence of Mcl-1 (Q07820 whole entry, species assumed): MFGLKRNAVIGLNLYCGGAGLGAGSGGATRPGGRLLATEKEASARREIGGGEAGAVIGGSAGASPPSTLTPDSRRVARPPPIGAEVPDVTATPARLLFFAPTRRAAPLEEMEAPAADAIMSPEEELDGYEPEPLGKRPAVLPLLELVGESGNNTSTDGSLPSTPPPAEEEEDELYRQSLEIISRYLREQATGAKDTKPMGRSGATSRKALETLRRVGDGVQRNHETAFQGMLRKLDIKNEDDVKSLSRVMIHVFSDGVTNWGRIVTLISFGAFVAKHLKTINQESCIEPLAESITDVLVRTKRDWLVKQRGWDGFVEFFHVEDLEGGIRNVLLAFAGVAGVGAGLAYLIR
Procedure, shortened: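 Binding to Mcl-1 was measured as displacement of a fluorescein-labelled macrocyclic peptidomimetic, read by fluorescence polarization. Constants were fitted by nonlinear regression.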

Bcl-xL = Bcl-xL (Homo sapiens, UniProt Q07817); assay: Ki determination for Bcl-xL (BCL-2 family binding spectrum); settings: TABLE 6; read-out: Bcl-xL Ki
Sequence of Bcl-xL (Q07817 whole entry, species assumed): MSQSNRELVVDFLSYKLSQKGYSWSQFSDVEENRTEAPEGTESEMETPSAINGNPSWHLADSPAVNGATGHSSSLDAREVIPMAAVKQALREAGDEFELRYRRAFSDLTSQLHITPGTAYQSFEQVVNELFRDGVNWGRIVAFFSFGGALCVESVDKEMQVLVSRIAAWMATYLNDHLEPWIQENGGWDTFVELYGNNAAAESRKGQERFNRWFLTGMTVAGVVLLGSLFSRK
Procedure, shortened: as §1

Mcl-1, Bcl-xL, Bcl-2 = assay: BCL-2 family selectivity profile; assay type: binding; settings: TABLE 6
Source text: The binding spectrum of stapled BIM BH3 peptides were tuned for BCL-2 family selectivity. […] ABT-199 is venetoclax, and † represents values reported in the literature.

Sequence of Bcl-2 (P10415 whole entry, species assumed): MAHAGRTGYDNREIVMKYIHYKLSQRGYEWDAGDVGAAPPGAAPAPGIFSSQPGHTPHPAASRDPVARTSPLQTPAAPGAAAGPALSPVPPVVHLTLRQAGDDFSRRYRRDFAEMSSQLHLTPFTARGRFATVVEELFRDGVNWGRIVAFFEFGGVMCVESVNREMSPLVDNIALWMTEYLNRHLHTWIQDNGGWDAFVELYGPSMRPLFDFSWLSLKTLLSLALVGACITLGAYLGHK

Ki (Bcl-2) [nM] | Ki (Mcl-1) [nM] | Ki (Bcl-xL) [nM] | Compound | Profile (Mcl-1, Bcl-xL, Bcl-2)
67 | 5.2 | 12 | CC[C@H](C)[C@H](NC(C)=O)C(=O)N[C@@H](Cc1c[nH]c2ccccc12)C(=O)N[C@H](C(=O)N[C@@H](C)C(=O)N[C@@H](CCC(N)=O)C(=O)N[C@@H](C)C(=O)N[C@@H](CC(C)C)C(=O)N[C@@H](CCCNC(=N)N)C(=O)N[C@]1(C)CCCCCCC=CCCC[C@@](C)(C(=O)N[C@@H](Cc2ccc(O)cc2)C(=O)N[C@@H](Cc2ccc(O)cc2)C(=O)N[C@@H](C)C(N)=O)NC(=O)[C@H](CC(N)=O)NC(=O)[C@H](Cc2ccccc2)NC(=O)[C@H](CCC(N)=O)NC(=O)[C@H](CC(=O)O)NC(=O)CNC(=O)[C@H]([C@@H](C)CC)NC1=O)[C@@H](C)CC [compound 2] (Ac-IWIAQALR[R8]IGDQFN[S5]YYA-NH2; staple 9-16) | Pan-selective
6 | 1 | 1 | CC[C@H](C)[C@H](NC(C)=O)C(=O)N[C@@H](Cc1c[nH]c2ccccc12)C(=O)N[C@H](C(=O)N[C@@H](C)C(=O)N[C@@H](C)C(=O)N[C@@H](C)C(=O)N[C@@H](CC(C)C)C(=O)N[C@@H](CCCNC(=N)N)C(=O)N[C@]1(C)CCCCCCC=CCCC[C@@](C)(C(=O)N[C@@H](Cc2ccc(O)cc2)C(=O)N[C@@H](Cc2ccc(O)cc2)C(=O)N[C@@H](C)C(N)=O)NC(=O)[C@H](CC(N)=O)NC(=O)[C@H](Cc2ccccc2)NC(=O)[C@H](CCC(=O)O)NC(=O)[C@H](CC(=O)O)NC(=O)CNC(=O)[C@H]([C@@H](C)CC)NC1=O)[C@@H](C)CC [compound 3] (Ac-IWIAAALR[R8]IGDEFN[S5]YYA-NH2; staple 9-16) | Pan-selective
22 | 6 | 4 | CC[C@H](C)[C@H](NC(C)=O)C(=O)N[C@@H](Cc1c[nH]c2ccccc12)C(=O)N[C@H](C(=O)N[C@@H](C)C(=O)N[C@@H](C)C(=O)N[C@@H](C)C(=O)N[C@@H](CC(C)C)C(=O)N[C@@H](CCCNC(=N)N)C(=O)N[C@]1(C)CCCCCCC=CCCC[C@@](C)(C(=O)N[C@@H](Cc2ccc(O)cc2)C(=O)N[C@@H](Cc2ccc(O)cc2)C(=O)N[C@@H](C)C(N)=O)NC(=O)[C@H](CC(N)=O)NC(=O)[C@H](Cc2ccccc2)NC(=O)[C@H](CCC(N)=O)NC(=O)[C@H](CC(=O)O)NC(=O)CNC(=O)[C@H]([C@@H](C)CC)NC1=O)[C@@H](C)CC [compound 4] (Ac-IWIAAALR[R8]IGDQFN[S5]YYA-NH2; staple 9-16) | Pan-selective
212 | 7.5 | 110 | CC[C@H](C)[C@H](NC(C)=O)C(=O)N[C@@H](Cc1c[nH]c2ccccc12)C(=O)N[C@H](C(=O)N[C@@H](C)C(=O)N[C@@H](CCC(N)=O)C(=O)N[C@@H](C)C(=O)N[C@@H](CC(C)C)C(=O)N[C@@H](CCCNC(N)=O)C(=O)N[C@]1(C)CCCCCCC=CCCC[C@@](C)(C(=O)N[C@@H](Cc2ccc(O)cc2)C(=O)N[C@@H](Cc2ccc(O)cc2)C(=O)N[C@@H](C)C(N)=O)NC(=O)[C@H](CC(N)=O)NC(=O)[C@H](Cc2ccccc2)NC(=O)[C@H](C)NC(=O)[C@H](CC(=O)O)NC(=O)CNC(=O)[C@H]([C@@H](C)CC)NC1=O)[C@@H](C)CC [compound 5] (Ac-IWIAQAL[Cit][R8]IGDAFN[S5]YYA-NH2; staple 9-16) | Mcl-1 selective
88.2 | 1.7 | 28.8 | CC[C@H](C)[C@H](NC(C)=O)C(=O)N[C@@H](Cc1c[nH]c2ccccc12)C(=O)N[C@H](C(=O)N[C@@H](C)C(=O)N[C@@H](CCC(N)=O)C(=O)N[C@@H](C)C(=O)N[C@@H](CC(C)C)C(=O)N[C@@H](CCCNC(N)=O)C(=O)N[C@]1(C)CCCCCCC=CCCC[C@@](C)(C(=O)N[C@@H](Cc2ccc(O)cc2)C(=O)N[C@@H](Cc2ccc(O)cc2)C(=O)N[C@@H](C)C(N)=O)NC(=O)[C@H](CC(N)=O)NC(=O)[C@H](Cc2ccccc2)NC(=O)[C@H](CCC(N)=O)NC(=O)[C@H](CC(=O)O)NC(=O)CNC(=O)[C@H]([C@@H](C)CC)NC1=O)[C@@H](C)CC [compound 6] (Ac-IWIAQAL[Cit][R8]IGDQFN[S5]YYA-NH2; staple 9-16) | Mcl-1 selective
140 | 7.5 | 402 | CC[C@H](C)[C@H](NC(C)=O)C(=O)N[C@@H](Cc1c[nH]c2ccccc12)C(=O)N[C@H](C(=O)N[C@@H](C)C(=O)N[C@@H](CCC(N)=O)C(=O)N[C@@H](C)C(=O)N[C@@H](CC(C)C)C(=O)N[C@@H](CCCNC(=N)N)C(=O)N[C@]1(C)CCCCCCC=CCCC[C@@](C)(C(=O)N[C@@H](Cc2ccc(O)cc2)C(=O)N[C@@H](Cc2ccc(O)cc2)C(=O)N[C@@H](C)C(N)=O)NC(=O)[C@H](CC(N)=O)NC(=O)[C@H](C)NC(=O)[C@H](C)NC(=O)[C@H](CC(=O)O)NC(=O)CNC(=O)[C@H]([C@@H](C)CC)NC1=O)[C@@H](C)CC [compound 7] (Ac-IWIAQALR[R8]IGDAAN[S5]YYA-NH2; staple 9-16) | Mcl-1 selective
25.6 | – | 7.7 | CC[C@H](C)[C@H](NC(C)=O)C(=O)N[C@@H](Cc1c[nH]c2ccccc12)C(=O)N[C@H](C(=O)N[C@@H](C)C(=O)N[C@@H](CCC(N)=O)C(=O)N[C@@H](C)C(=O)N[C@@H](CC(C)C)C(=O)N[C@@H](CCCNC(=N)N)C(=O)N[C@]1(C)CCCCCCC=CCCC[C@@](C)(C(=O)N[C@@H](Cc2ccc(O)cc2)C(=O)N[C@@H](Cc2ccc(O)cc2)C(=O)N[C@@H](C)C(N)=O)NC(=O)[C@H](CC(N)=O)NC(=O)[C@H](Cc2ccccc2)NC(=O)[C@H](CCC(N)=O)NC(=O)[C@H](CC(=O)O)NC(=O)[C@H](C)NC(=O)[C@H]([C@@H](C)CC)NC1=O)[C@@H](C)CC [compound 9] (Ac-IWIAQALR[R8]IADQFN[S5]YYA-NH2; staple 9-16) | Bcl-xL/Bcl-2 selective
4.8 | 122 | 1.9 | CC[C@H](C)[C@H](NC(C)=O)C(=O)N[C@@H](Cc1c[nH]c2ccccc12)C(=O)N[C@H](C(=O)N[C@@H](C)C(=O)N[C@@H](CCC(N)=O)C(=O)N[C@@H](C)C(=O)N[C@@H](CC(C)C)C(=O)N[C@@H](CCCNC(=N)N)C(=O)N[C@]1(C)CCCCCCC=CCCC[C@@](C)(C(=O)N[C@@H](Cc2ccc(O)cc2)C(=O)N[C@@H](Cc2ccc(O)cc2)C(=O)N[C@@H](C)C(N)=O)NC(=O)[C@H](CC(N)=O)NC(=O)[C@H](Cc2ccccc2)NC(=O)[C@H](CCC(N)=O)NC(=O)[C@H](CC(=O)O)NC(=O)CNC(=O)[C@H](C)NC1=O)[C@@H](C)CC [compound 10] (Ac-IWIAQALR[R8]AGDQFN[S5]YYA-NH2; staple 9-16) | Bcl-xL/Bcl-2 selective

Compound | Ki (Bcl-2) [nM] | Ki (Mcl-1) [nM] | Ki (Bcl-xL) [nM] | Profile (Mcl-1, Bcl-xL, Bcl-2)
CC[C@H](C)[C@H](NC(C)=O)C(=O)N[C@@H](Cc1c[nH]c2ccccc12)C(=O)N[C@H](C(=O)N[C@@H](C)C(=O)N[C@@H](CCC(N)=O)C(=O)N[C@@H](C)C(=O)N[C@@H](CC(C)C)C(=O)N[C@@H](CCCNC(=N)N)C(=O)N[C@]1(C)CCCCCCC=CCCC[C@@](C)(C(=O)N[C@@H](Cc2ccc(O)cc2)C(=O)N[C@@H](Cc2ccc(O)cc2)C(=O)N[C@@H](C)C(N)=O)NC(=O)[C@H](CC(N)=O)NC(=O)[C@H](Cc2ccccc2)NC(=O)[C@H](CCC(=O)O)NC(=O)[C@H](CC(=O)O)NC(=O)CNC(=O)[C@H]([C@@H](C)CC)NC1=O)[C@@H](C)CC [Peptide #1] (Ac-IWIAQALR[R8]IGDEFN[S5]YYA-NH2; staple 9-16) | 3.2 | 1.8 | 1.4 | Pan-selective

From patent publication US20190185518A9, “WARHEAD-CONTAINING PEPTIDOMIMETIC MACROCYCLES AS MODULATORS OF BFL-1” (AILERON Therapeutics, Inc., priority 2017, published 2019)
